Measured values: US20240254135A1, “POLYPHENOL COMPOUNDS” (Epirium Bio Inc., priority 2022, published 2024)

Key:
[1] = system: PGC-1α; assay: In vitro PGC-1α expression in differentiated C2C12 cells (cell ELISA); format: cell-based; conditions: 1 mM
Protocol: Culture conditions: DMEM containing 25 mM glucose with 10% FBS supplementation; grown at 37° C. and 5% CO2.
Drugs: (+)Epicatechin, AICAR (direct activator of AMPK).
Assay Conditions: C2C12 cells were cultured in DMEM supplemented in 10% FBS up to 80% confluence. The cells were further trypsinized and seeded into a 96 well plate at a density of 5000 cells/well (well volume—100 μL) (Day 0). Following attachment, the cells were allowed to reach 80-90% confluence in the plate (typically 48 hours post seeding) and further differentiated using DMEM+2% Horse Serum (200 μL/well). The media was changed every day or at least every alternate day for 5 days to allow myoblasts to differentiate into myotubes. On day 7 (post seeding), the cells were treated with standards and test compounds for PGC-1 α assay.
PGC-1α assay: For the detection of PGC-1α, the cells were incubated with 0.5 μg/ml primary antibody (Merck, WH0010891M3) in PBS-T containing 5% BSA at 4° C. overnight. The cells were then washed three times with PBS-T for 5 minutes and incubated with 1:1000 dilution secondary antibody (Anti-rabbit IgG, HRP-linked Antibody, Cell Signaling) in PBS-T with 1% BSA for 1 hour at RT. Cells were washed three times with PBS-T for 5 minutes The cells were incubated with 100 μl TMB substrate solution for 30 minutes and the reaction was stopped with 100 μl of 2N H2SO4. […] (For plate optical density calculations, a background correction was taken at 540 nm). The final PGC-1α activation % is average of activation of 6 replicates.

[2] = target: T1, mitochondrial ATP synthase (Mus musculus, UniProt P56480+Q03265); assay: ATP synthesis (oxygen consumption, Seahorse XF96) in fresh heart mitochondria; format: biochemical; conditions: fresh heart mitochondria (FIG. 1, FIG. 2)
T1 construct: from tissue; host or cells: mouse heart, isolated mitochondria (fresh or frozen)
From the text: (§1) To assess whether the fraction of synthetic and reverse hydrolytic activities of mitochondrial ATP synthase can be measured in the same preparation, a protocol was developed to monitor changes in oxygen consumption and proton release in response to changes in mitochondrial ATP synthase activity. The proton released and the concomitant changes in the pH can be monitored using the ECAR (extracellular acidification) channel in the Agilent Seahorse XF analyzer using isolated mitochondria, to ensure that the changes in pH cannot be attributed to glycolysis or other contributors to ECAR.
(§2) Mice were anesthetized with isoflurane followed by a cervical dislocation, and the heart was immediately removed and placed in ice cold relaxation buffer (5 mM sodium pyrophosphate, 100 mM KCl, 5 mM EGTA, 5 mM HEPES; pH 7.4). The heart was squeezed with tweezers to remove blood, minced with scissors, and then placed in a glass-glass Dounce homogenizer with 3 mL of HES homogenization buffer (250 mM sucrose, 5 mM HEPES, 1 mM EDTA; pH to 7.2, adjusted with KOH). The heart tissue was homogenized first with the loose pestle and followed by the tight pestle. The homogenized tissue was placed in a pre-chilled 15 ml conical tube and centrifuged at 900×g (4° C.) for 10 minutes (min). The supernatant was removed, placed in a new tube and centrifuged again at 900×g for 10 min. The supernatant was then transferred to 2 mL microcentrifuge tubes and centrifuged at 10,000×g (4° C.) for 10 min. The mitochondrial pellets were re-suspended in ice cold HES buffer and mitochondrial protein was measured with a BCA assay (Pierce). The concentrated mitochondrial pellet was stored on ice.
Heart mitochondria (0.75-1.5 μg) were loaded into a Seahorse XF96 microplate in 20 μL of MAS (70 mM Sucrose, 220 mM Mannitol, 5 mM KH2PO4, 5 mM MgCl2, 1 mM EGTA, 2 mM HEPES; pH 7.2) plus 1% free fatty acid BSA containing substrates. The loaded plate was centrifuged at 2,000×g for 5 min at 4° C. […]
Oxygen consumption was measured in isolated fresh intact mitochondria from mouse heart, as oxygen consumption is linked to maximal ATP synthesis and proton release when mitochondria are respiring either in the presence of substrates and ADP (ATP synthesizing mitochondria or state 3) or in the presence of substrates but not ADP (state 4). […]
OCR and ECAR were measured in a Seahorse XF96 analyzer under basal conditions as well as after injection of 2 μM oligomycin, two sequential additions of 1.5 μM FCCP, followed by 1 μM rotenone with 2 μM antimycin A. Respiratory parameters were calculated according to standard protocols, and all rates were corrected for non-mitochondrial respiration/background signal by subtracting the oxygen consumption rate insensitive to rotenone plus antimycin A.

[3] = target: T1, mitochondrial ATP synthase; assay: ATP hydrolysis (proton release/ECAR, Seahorse XF96) in fresh heart mitochondria; format: biochemical; conditions: fresh heart mitochondria (FIG. 1, FIG. 2)
From the text: as §1, §2
Heart mitochondria (0.75-1.5 μg) were loaded into a Seahorse XF96 microplate in 20 μL of MAS (70 mM Sucrose, 220 mM Mannitol, 5 mM KH2PO4, 5 mM MgCl2, 1 mM EGTA, 2 mM HEPES; pH 7.2) plus 1% free fatty acid BSA containing substrates. The loaded plate was centrifuged at 2,000×g for 5 min at 4° C. (no brake) and an additional 130 μL of MAS was added to each well. When assessing compounds effect on respirometry, the compounds were added at this point at the indicated concentration in MAS buffer. To avoid disrupting mitochondrial adherence to the bottom of the plate, MAS was added using a multichannel pipette pointed at a 45° angle to the top of the well-chamber, as instructed by the manufacturer. Substrate concentrations in the well when assay was starting in state 4 were as follow: (i) 5 mM pyruvate+5 mM malate or ii) 5 mM succinate+2 μM rotenone. Substrate concentrations in the well when assay was starting in state 3 were as follow: (i) 5 mM pyruvate+5 mM malate+4 mM ADP or ii) 5 mM succinate+2 μM rotenone+4 mM ADP. Injections were performed as indicated in the figure descriptions at the following final concentration in the well: oligomycin (3.5 μM), FCCP (4 μM), Antimycin A (2 μM). Compounds were added at the indicated concentration.
ATP hydrolysis capacity or state 4 acidification was measured using Seahorse XF96 as described in Divakaruni et al. (2018) Anal Biochem 552:60-65 and Acin-Perez et al. (2021) Life 11(9):949, in MAS (70 mM Sucrose, 220 mM Mannitol, 5 mM KH2PO4, 5 mM MgCl2, 1 mM EGTA, 2 mM HEPES; pH 7.2). Plates were loaded with 0.75-1.5 μg of mouse heart mitochondria, or 25 μg of cell lysate. Cell lysates were prepared by subjecting the samples to 4 cycles of free thaw (liquid nitrogen—37° C. water bath) before measuring protein concentration. When assessing compounds effect on respirometry, the compounds were added in MAS after sample centrifugation. Initial respiration of the samples was sustained by the addition of 5 mM succinate+2 μM rotenone in the MAS after centrifugation. Injections were performed at the following final concentration in the well: Antimycin A (2 μM), oligomycin (5 μM), FCCP (1 μM), ATP (20 mM). To assess maximal ATP concentration, ATP was injected consecutively. […]

[4] = target: T1, mitochondrial ATP synthase; assay: Maximal ATP hydrolysis capacity in frozen heart mitochondria; format: biochemical; conditions: frozen heart mitochondria, different concentrations in the assay media
Protocol: ATP hydrolysis capacity or state 4 acidification was measured using Seahorse XF96 as described in Divakaruni et al. (2018) Anal Biochem 552:60-65 and Acin-Perez et al. (2021) Life 11(9):949, in MAS (70 mM Sucrose, 220 mM Mannitol, 5 mM KH2PO4, 5 mM MgCl2, 1 mM EGTA, 2 mM HEPES; pH 7.2). Plates were loaded with 0.75-1.5 μg of mouse heart mitochondria, or 25 μg of cell lysate. Cell lysates were prepared by subjecting the samples to 4 cycles of free thaw (liquid nitrogen—37° C. water bath) before measuring protein concentration. When assessing compounds effect on respirometry, the compounds were added in MAS after sample centrifugation. Initial respiration of the samples was sustained by the addition of 5 mM succinate+2 μM rotenone in the MAS after centrifugation. Injections were performed at the following final concentration in the well: Antimycin A (2 μM), oligomycin (5 μM), FCCP (1 μM), ATP (20 mM). To assess maximal ATP concentration, ATP was injected consecutively.
An additional assay was developed to determine the maximal ATP hydrolysis capacity in frozen mitochondria. Maximal ATP hydrolytic capacity was assessed in frozen heart mitochondria where mitochondrial respiration is inhibited by Antimycin A and maximal ATP hydrolysis is driven by co-injection of FCCP and ATP, followed by inhibition in the presence of oligomycin.

SMILES | % Activity (PGC-1α expression) ([1]; Table 4, differentiated C2C12 cells, OD at 5 minutes) | % Activity (PGC-1α expression) ([1]; Table 5, differentiated C2C12, 5000 cells/well, DMSO = 100) | % Activity (PGC-1α expression) ([1]; Table 6, C2C12 cells, 5000 cells/well) | % Activity (PGC-1α expression) ([1]; Table 7, C2C12 cells, 5000 cells/well, DMSO = 100) | % Activity (PGC-1α expression) ([1]; Table 8, C2C12 cells, 5000 cells/well, DMSO = 100) | change in ATP synthesis [2] | changes in ATP hydrolysis [3] | inhibition of ATP hydrolysis [4]
NC(=O)c1ncn([C@@H]2O[C@H](CO)[C@@H](O)[C@H]2O)c1N [AICAR, 5-aminoimidazole-4-carboxamide-1-β-D-ribofuranoside] | 128% | 122% | 136% | 122% | 140% | – | – | –
CC[C@H]1/C=C/C=C/C[C@@H](C)[C@H](O)[C@@](C)(O)C(=O)[C@@H](C)[C@H](O)[C@@H](C)C(=O)[C@@H](C)[C@H](O)[C@@H](C)/C=C/C(=O)O[C@@H]2[C@H](C)[C@H](CC1)O[C@]1(CC[C@H](C)[C@H](C[C@@H](C)O)O1)[C@H]2C [Oligomycin, oligomycin, reference compound] | – | – | – | – | – | worked as expected | worked as expected | dose dependent inhibition
